Measured values: patent US8927559B2, “Quinazolinone-type compounds as CRTH2 antagonists” (Merck Sharp & Dohme Corp., priority 2010, dated 2015)

What follows are compounds tested against T1, CRTH2 receptor (hCRTH2) (Homo sapiens, UniProt Q9Y5Y4) (assay: Radioligand binding assay ([3H]PGD2 competition, membranes of HEK-hCRTH2 cell line)). Details: 3.0 nM [3H]PGD2, HEK-hCRTH2 membranes, 60 min, room temperature; read-out: Ki.
T1 construct: expressed in transfected cells; host or cells: HEK cells (HEK-hCRTH2 cell line), membranes
T1 sequence (Q9Y5Y4 1-395): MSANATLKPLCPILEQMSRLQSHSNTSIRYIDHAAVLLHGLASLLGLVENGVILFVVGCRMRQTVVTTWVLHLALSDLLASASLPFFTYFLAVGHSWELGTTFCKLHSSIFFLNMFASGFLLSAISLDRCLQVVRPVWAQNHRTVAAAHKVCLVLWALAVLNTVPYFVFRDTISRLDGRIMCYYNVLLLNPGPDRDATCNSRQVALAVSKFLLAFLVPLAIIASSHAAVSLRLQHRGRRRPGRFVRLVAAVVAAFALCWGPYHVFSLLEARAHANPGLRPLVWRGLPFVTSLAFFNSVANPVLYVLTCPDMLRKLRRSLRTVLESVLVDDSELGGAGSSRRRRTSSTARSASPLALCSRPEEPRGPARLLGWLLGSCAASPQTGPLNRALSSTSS
Method in brief: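 Membranes (8-20 μg protein) from HEK cells expressing human CRTH2 were incubated with [3H]PGD2 and competitor in 1% DMSO for 60 min at room temperature. Non-specific binding was defined with excess PGD2. Bound radioactivity was separated by filtration and counted by melt-on scintillation.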

Compound	Ki [nM]
O=C(O)CCCCc1nc2cc(-c3noc(C4CCCc5ccccc54)n3)ccc2c(=O)n1-c1ccc(F)cc1 (stereo not drawn) [Example 245]	10 to 50
O=C(O)CCCCc1nc2cc(-c3noc(C4CCc5ccccc5C4)n3)ccc2c(=O)n1-c1ccc(F)cc1 (stereo not drawn) [Example 247]	10 to 50
O=C(O)CCCCc1nc2cc(-c3noc(-c4nc5ccc(F)cc5o4)n3)ccc2c(=O)n1-c1ccc(F)cc1 [Example 248]	10 to 50
CC(c1ccc(F)cc1)c1nc(-c2ccc3c(=O)n(-c4ccc(F)cc4)c(CCCCC(=O)O)nc3c2)no1 (stereo not drawn) [Example 249]	10 to 50
C[C@@](O)(c1ccc(F)cc1)c1cc(-c2ccc3c(=O)n(-c4ccc(F)cc4)c(CCCCC(=O)O)nc3c2)no1 [Example 258]	10 to 50
C[C@](O)(c1ccc(F)cc1)c1cc(-c2ccc3c(=O)n(-c4ccc(F)cc4)c(CCCCC(=O)O)nc3c2)no1 [Example 259]	10 to 50
C[C@@H](O)c1cc(-c2ccc3c(=O)n(-c4ccc(F)cc4)c(CCCCC(=O)O)nc3c2)no1 [Example 265]	10 to 50
C[C@@H](OCc1ccccc1)c1cc(-c2ccc3c(=O)n(-c4ccc(F)cc4)c(CCCCC(=O)O)nc3c2)no1 [Example 267]	10 to 50
O=C(O)CCCCc1nc2cc(-c3cc(COCc4cc(F)cc(Cl)c4)on3)ccc2c(=O)n1-c1ccc(F)cc1 [Example 271]	≤ 10
O=C(O)CCCCc1nc2cc(-c3cc(COCc4ccc(F)cc4F)on3)ccc2c(=O)n1-c1ccc(F)cc1 [Example 272]	≤ 10
C[C@@H](OCc1cccc(F)c1)c1cc(-c2ccc3c(=O)n(-c4ccc(F)cc4)c(CCCCC(=O)O)nc3c2)no1 [Example 273]	≤ 10
C[C@@H](OCc1ccc(F)c(F)c1)c1cc(-c2ccc3c(=O)n(-c4ccc(F)cc4)c(CCCCC(=O)O)nc3c2)no1 [Example 274]	10 to 50
O=C(O)CCCCc1nc2cc(-c3cc(COCc4cc(F)ccc4F)on3)ccc2c(=O)n1-c1ccc(F)cc1 [Example 275]	≤ 10
O=C(O)CCCCc1nc2cc(-c3cc(COCc4cccc(F)c4)on3)ccc2c(=O)n1-c1ccc(F)cc1 [Example 276]	≤ 10
O=C(O)CCCCc1nc2cc(-c3cc(COCc4ccccc4)on3)ccc2c(=O)n1-c1ccc(F)cc1 [Example 277]	10 to 50
O=C(O)CCCCc1nc2cc(-c3cc(COCc4ccc(F)cc4)on3)ccc2c(=O)n1-c1ccc(F)cc1 [Example 278]	10 to 50

Compound	Ki [nM]
O=C(O)CCCCc1nc2cc(-c3cc(COCc4ccccc4F)on3)ccc2c(=O)n1-c1ccc(F)cc1 [Example 279]	≤ 10
O=C(O)CCCCc1nc2cc(-c3cc(COCc4ccc(-c5ccccc5)cc4)on3)ccc2c(=O)n1-c1ccc(F)cc1 [Example 280]	10 to 50
O=C(O)CCCCc1nc2cc(-c3cc(COCc4cccc(-c5ccccc5)c4)on3)ccc2c(=O)n1-c1ccc(F)cc1 [Example 281]	10 to 50
O=C(O)CCCCc1nc2cc(-c3cc(COCc4cccc(-c5ccccc5)c4)on3)ccc2c(=O)n1-c1ccc(F)cc1 [Example 282]	≤ 10
O=C(O)CCCCc1nc2cc(-c3cc(COCc4cccc5cccnc45)on3)ccc2c(=O)n1-c1ccc(F)cc1 [Example 283]	10 to 50
O=C(O)CCCCc1nc2cc(-c3cc(COCc4ccnc5ccccc45)on3)ccc2c(=O)n1-c1ccc(F)cc1 [Example 284]	10 to 50
C[C@@H]1C(c2ccc3c(=O)n(-c4ccc(F)cc4)c(CCCCC(=O)O)nc3c2)=NO[C@@H]1c1ccccc1 [Example 285]	≤ 10
C[C@H]1C(c2ccc3c(=O)n(-c4ccc(F)cc4)c(CCCCC(=O)O)nc3c2)=NO[C@@H]1c1ccccc1 [Example 286]	≤ 10
C[C@H]1ON=C(c2ccc3c(=O)n(-c4ccc(F)cc4)c(CCCCC(=O)O)nc3c2)[C@H]1c1ccccc1 [Example 287]	≤ 10
C[C@]1([C@H](O)c2ccc(F)cc2)CC(c2ccc3c(=O)n(-c4ccc(F)cc4)c(CCCCC(=O)O)nc3c2)=NO1 [Example 288]	10 to 50
C[C@@]1([C@H](O)c2ccc(F)cc2)CC(c2ccc3c(=O)n(-c4ccc(F)cc4)c(CCCCC(=O)O)nc3c2)=NO1 [Example 289]	≤ 10
C[C@]1([C@@H](O)c2ccc(F)cc2)CC(c2ccc3c(=O)n(-c4ccc(F)cc4)c(CCCCC(=O)O)nc3c2)=NO1 [Example 290]	≤ 10
C[C@@]1([C@@H](O)c2ccc(F)cc2)CC(c2ccc3c(=O)n(-c4ccc(F)cc4)c(CCCCC(=O)O)nc3c2)=NO1 [Example 291]	10 to 50
C[C@]1(Cc2ccc(F)cc2)CC(c2ccc3c(=O)n(-c4ccc(F)cc4)c(CCCCC(=O)O)nc3c2)=NO1 [Example 292]	10 to 50
C[C@@]1(Cc2ccc(F)cc2)CC(c2ccc3c(=O)n(-c4ccc(F)cc4)c(CCCCC(=O)O)nc3c2)=NO1 [Example 293]	10 to 50

Next, values leading:

Ki [nM]	Compound
≤ 10	O=C(O)CCCCc1nc2cc(-c3noc(C4CCc5ccccc5C4)n3)ccc2c(=O)n1-c1ccc(F)cc1 (stereo not drawn) [Example 246]
≤ 10	C=C(c1ccc(F)cc1)c1cc(-c2ccc3c(=O)n(-c4ccc(F)cc4)c(CCCCC(=O)O)nc3c2)no1 [Example 250]
≤ 10	N#Cc1ccccc1C1CC(c2ccc3c(=O)n(-c4ccc(F)cc4)c(CCCCC(=O)O)nc3c2)=NO1 (stereo not drawn) [Example 251]
≤ 10	CC1(c2ccncc2)CC(c2ccc3c(=O)n(-c4ccc(F)cc4)c(CCCCC(=O)O)nc3c2)=NO1 (stereo not drawn) [Example 252]
≤ 10	CC1(c2cccnc2)CC(c2ccc3c(=O)n(-c4ccc(F)cc4)c(CCCCC(=O)O)nc3c2)=NO1 (stereo not drawn) [Example 253]
≤ 10	CCCC1(c2ccccc2)CC(c2ccc3c(=O)n(-c4ccc(F)cc4)c(CCCCC(=O)O)nc3c2)=NO1 (stereo not drawn) [Example 254]
≤ 10	CCCCC1(c2ccccc2)CC(c2ccc3c(=O)n(-c4ccc(F)cc4)c(CCCCC(=O)O)nc3c2)=NO1 (stereo not drawn) [Example 255]
≤ 10	CC[C@@](O)(c1ccc(F)cc1)c1cc(-c2ccc3c(=O)n(-c4ccc(F)cc4)c(CCCCC(=O)O)nc3c2)no1 [Example 256]
≤ 10	CC[C@](O)(c1ccc(F)cc1)c1cc(-c2ccc3c(=O)n(-c4ccc(F)cc4)c(CCCCC(=O)O)nc3c2)no1 [Example 257]
≤ 10	CC(c1ccc(F)cc1)c1cc(-c2ccc3c(=O)n(-c4ccc(F)cc4)c(CCCCC(=O)O)nc3c2)no1 (stereo not drawn) [Example 260]
≤ 10	CCC(c1ccc(F)cc1)c1cc(-c2ccc3c(=O)n(-c4ccc(F)cc4)c(CCCCC(=O)O)nc3c2)no1 (stereo not drawn) [Example 261]
≤ 10	CC(c1ccc(F)cc1)C1(C)CC(c2ccc3c(=O)n(-c4ccc(F)cc4)c(CCCCC(=O)O)nc3c2)=NO1 (stereo not drawn) [Example 262]
≤ 10	C[C@H](c1ccc(F)cc1)c1cc(-c2ccc3c(=O)n(-c4ccc(F)cc4)c(CCCCC(=O)O)nc3c2)no1 [Example 263]
≤ 10	C[C@@H](c1ccc(F)cc1)c1cc(-c2ccc3c(=O)n(-c4ccc(F)cc4)c(CCCCC(=O)O)nc3c2)no1 [Example 264]
≤ 10	C[C@H](Oc1ccc(F)cc1)c1cc(-c2ccc3c(=O)n(-c4ccc(F)cc4)c(CCCCC(=O)O)nc3c2)no1 [Example 268]
≤ 10	O=C(O)CCCCc1nc2cc(-c3cc(COCc4cc(F)cc(F)c4)on3)ccc2c(=O)n1-c1ccc(F)cc1 [Example 269]
≤ 10	O=C(O)CCCCc1nc2cc(-c3cc(COCc4ccc(F)c(F)c4)on3)ccc2c(=O)n1-c1ccc(F)cc1 [Example 270]
